Here are results for 11 compounds from patent publication US20250276979A1, “SARS-COV2 MAIN PROTEASE INHIBITORS” (Gilead Sciences, Inc., priority 2024, published 2025).

For this test, the system named is SARS-CoV-2-NLuc in A549-hACE2 cells. As to the kind of experiment: microbe, parasite or virus in culture. The format is cell-based. To be noted: Severe acute respiratory syndrome coronavirus 2, 48 h; read-out: MPro EC50.
A word on the EC50: it is the midpoint of the concentration-response curve. As for `COc1cc(-c2cc3[nH]c(=O)n([C@@H]4CCCNC(=O)C4)c(=O)c3s2)c(Cl)cc1Cl` [Example 47, (R)-6-(2,4-dichloro-5-methoxyphenyl)-3-(2-oxoazepan-4-yl)thieno[3,2-d]pyrimidine-2,4(1H,3H)-dione], the concentration for a half-maximal effect (EC50) turned out to be 27.7 nM. The result for `COc1cc(-c2cc3c(s2)c(=O)n([C@@H]2CCCNC(=O)C2)c(=O)n3CCC#N)c(Cl)cc1F` [Example 48, (R)-3-(6-(2-chloro-4-fluoro-5-methoxyphenyl)-2,4-dioxo-3-(2-oxoazepan-4-yl)-3,4-dihydrothieno[3,2-d]pyrimidin-1(2H)-yl)propanenitrile] reads 16.4 nM. With `COc1cc(-c2cc3c(s2)c(=O)n([C@@H]2CCCNC(=O)C2)c(=O)n3CCC#N)c(C#N)cc1F` [Example 49, (R)-2-(1-(2-cyanoethyl)-2,4-dioxo-3-(2-oxoazepan-4-yl)-1,2,3,4-tetrahydrothieno[3,2-d]pyrimidin-6-yl)-5-fluoro-4-methoxybenzonitrile], the EC50 is more than 1000 nM. The result for `COc1cnc(Cl)c(-c2cc3c(s2)c(=O)n([C@@H]2CCCNC(=O)C2)c(=O)n3CCC#N)c1` [Example 50, (R)-3-(6-(2-chloro-5-methoxypyridin-3-yl)-2,4-dioxo-3-(2-oxoazepan-4-yl)-3,4-dihydrothieno[3,2-d]pyrimidin-1(2H)-yl)propanenitrile] reads more than 1000 nM; that for `N#CCCn1c(=O)n([C@@H]2CCCNC(=O)C2)c(=O)c2sc(-c3ccccc3Cl)cc21` [Example 51, (R)-3-(6-(2-chlorophenyl)-2,4-dioxo-3-(2-oxoazepan-4-yl)-3,4-dihydrothieno[3,2-d]pyrimidin-1(2H)-yl)propanenitrile], 98 nM; that for `N#CCCn1c(=O)n([C@@H]2CCCNC(=O)C2)c(=O)c2sc(-c3ccccc3C#N)cc21` [Example 52, (R)-2-(1-(2-cyanoethyl)-2,4-dioxo-3-(2-oxoazepan-4-yl)-1,2,3,4-tetrahydrothieno[3,2-d]pyrimidin-6-yl)benzonitrile], 619 nM. For `COc1cc(-c2cc3[nH]c(=O)n(C4CC(=O)NCC(C)(C)C4)c(=O)c3s2)c(Cl)cc1F` (centres unmarked) [Example 55, 6-(2-chloro-4-fluoro-5-methoxyphenyl)-3-(6,6-dimethyl-2-oxoazepan-4-yl)thieno[3,2-d]pyrimidine-2,4(1H,3H)-dione], the EC50 came to 102 nM. `COc1cc(-c2cc3[nH]c(=O)n([C@@H]4CCCNC(=O)C4)c(=O)c3cc2OC)c(C#N)cc1F` [Example 56, (R)-5-fluoro-4-methoxy-2-(6-methoxy-2,4-dioxo-3-(2-oxoazepan-4-yl)-1,2,3,4-tetrahydroquinazolin-7-yl)benzonitrile]: the EC50 came to 795 nM.

On to `COc1cc(-c2cc3[nH]c(=O)n([C@H]4CNC(=O)C4)c(=O)c3o2)c(Cl)cc1F` [Example 57, 6-(2-chloro-4-fluoro-5-methoxy-phenyl)-3-[(3R)-5-oxopyrrolidin-3-yl]-1H-furo[3,2-d]pyrimidine-2,4-dione], for which the EC50 was more than 1000 nM.

Turning to `COc1cc(-c2cc3[nH]c(=O)n(C4CCCCNC(=O)C4)c(=O)c3s2)c(Cl)cc1F` (centres unmarked) [Example 58, 6-(2-chloro-4-fluoro-5-methoxyphenyl)-3-(2-oxoazocan-4-yl)thieno[3,2-d]pyrimidine-2,4(1H,3H)-dione], the EC50 is 723 nM.

With `COc1cc(-c2cc3[nH]c(=O)n([C@@H]4CCCNC(=O)C4)c(=O)c3o2)c(Cl)cc1F` [Example 59, (R)-6-(2-chloro-4-fluoro-5-methoxyphenyl)-3-(2-oxoazepan-4-yl)furo[3,2-d]pyrimidine-2,4(1H,3H)-dione], the EC50 worked out at 651 nM.
